In patent EP2666766A1, “Novel E,E-diene compounds and their use as medicaments and cosmetics” (Dr. August Wolff GmbH & Co. KG Arzneimittel, priority 2012, dated 2013):

System: Arachidonoylethanolamide Transport (AEAT)
Assay: Cellular uptake of [3H]-AEA (inhibition of AEA transport)
Type: cell-based
Details: Homo sapiens, U-937, 0.25 h; U937 cells; 100 nM AEA, 15 min, 37°C
Protocol: C. Cellular uptake of [^3H]-AEA
Human lymphoma U937 cells were grown in RPMI 1640 medium (Invitrogen, Basel, Switzerland) supplemented with 10% fetal bovine serum, […] fungizone (amphotericin B), 100 units/ml penicillin, 100 µg/ml streptomycin, and 2 mM L-glutamine (all from Invitrogen) and selected for the cellular AEA uptake assay. 2.5 x 10^6 cells were collected and suspended in 250 µL of RPMI 1640 medium (Invitrogen, Basel, Switzerland) at 37°C using glass silanized vials. Cells were pre-incubated 15 min at 37°C in presence of test compounds in a concentration range of 10^-11 - 10^-5 M or in presence of the same amount (5 µl) of vehicle control (DMSO). Then a mixture of 0.5 nM [^3H]-AEA (60 Ci/mmol) (American Radiolabeled Chemicals, Inc., San Louis, MO, US) and 99.5 nM of nonradioactive AEA (Tocris Cookson Ltd., Bristol, UK) resulting in a final concentration of 100 nM AEA was added and samples were incubated at 37°C for another 15 minutes. The reaction was stopped by rapid filtration over UniFilter®-96 GF/C (Perkin Elmer, Boston MA, US) pre-soaked with PBS 0.25 % BSA (w/v). Cells were washed three times with ice-cold PBS buffer containing 1% fatty acid free BSA (137 mM NaCl, 2.7 mM KCl, 10 mM Na2HPO4, 1.76 mM KH2PO4, 1% BSA fatty acid free, pH 7.4), dried and 40 µL MicroScint 20 scintillation cocktail (Perkin Elmer, Waltham, MA, US) was added. Radioactivity was measured using a Perkin Elmer 1450 Microbeta TRILUX liquid scintillation counter. Results were expressed as % of AEA uptake versus cells treated with solvent and the EC50 and IC50 values were calculated from the sigmoidal curves, which were generated using the GraphPad Prism 5.0 (GraphPad Software, San Diego, CA, US). Table 2: Inhibition of Arachidonoylethanolamide Transport (AEAT) (Determination as Described in Biological Assays C)

`CCCCCOC/C=C/C=C/CNC(=O)OCc1ccncc1` [Example 1] gave an EC50 of 147 nM.
Work on `CCCCCOC/C=C/C=C/CNC(=O)NCCc1ccc(O)c(O)c1` [Example 3] yielded an EC50 of 6 nM.
With `CCCCOCC/C=C/C=C/CNC(=O)OCc1cc(C(=O)OCC)no1` [Example 9] the EC50 was 3 nM.
With `CCCCOCC/C=C/C=C/CNC(=O)OCc1cc(C(=O)N(C)C)no1` [Example 12] the EC50 was 6 nM.
With `CCCCOCC/C=C/C=C/CNC(=O)OCc1cc(C(=O)NC)no1` [Example 13] the EC50 was 0.573 nM.
Compound `CCCCOCC/C=C/C=C/CN(C)C(=O)OCc1cc(C(=O)OCC)no1` [Example 14] has an EC50 of 286 nM.
With `CCCCOCC/C=C/C=C/CN(C)C(=O)OCc1cc(C(N)=O)no1` [Example 15] the EC50 was 70 nM.
Compound `CCCCOCC/C=C/C=C/CN(C)C(=O)OCc1cc(C(=O)NC)no1` [Example 16] has an EC50 of 7 nM.
For `CCCCOCC/C=C/C=C/CN(C)C(=O)OCc1cc(C(=O)N(C)C)no1` [Example 17], the EC50 was 81 nM.
`CCCCOCC/C=C/C=C/CNC(=O)OCc1cc(C(N)=O)no1` [Example 18] gave an EC50 of 9 nM.
